Tests used:
EGFR = biological target: T1, EGFR (Homo sapiens, UniProt P00533); assay: EGFR ELISA assay (in vitro kinase activity, EGFR captured from A431 cell lysate); assay type: biochemical; design: concentration or dose not given beside the values
T1 construct: Add 7 ug A431 cell lysate per well (EGFR source); endogenous in cells; host or cells: A431
From the text: To provide a consistent method for measuring the in vitro kinase activity of the EGFR in an Enzyme-linked immunosorbent assay (Elisa).
Scope. The following protocol describes the procedures used to analyze protein tyrosine kinase activity on the EGFR in an Elisa. The procedure also describes the protocol for the initial screening of drugs for inhibition or activation of protein tyrosine kinase activity.
Reagents and Supplies. • 1. […] 05-101 monoclonal anti-EGFR antibody (commercially available from UB1) -80° C, 1 ml aliquots • 3. […] TBST Buffer Formulation: 50 mM Tris pH 7.2 150 mM NaCl 0.1% Triton X-100 • 5. Blocking Buffer Formulation: 5% Carnation Instant Milk in PBS • 6. A431 cell lysate A431 cells are available from a variety of commercial sources and may be used lysed using conventional methods known to those skilled in the art or as described for lysis of the 3T3 cells in the EGF cellular assay described herein. -80° C, 1 ml aliquots • 7. TBS Buffer Formulation: 50 mM Tris pH 7.2 150 mM NaCl • 8. […] NUNC 96-well V bottom polypropylene plates Applied Scientific Catalog # AS-72092 • 11. EDTA Formulation: 200 mM EDTA pH 8.0 • 12. […] Goat anti-rabbit IgG peroxidase conjugate Biosource Catalog # ALI0404 • 14. ABTS Solution Formulation: 100 mM Citric Acid (anhydrous) 250 mM Na2HPO4 pH 4.0 0.5 mg/ml ABTS (2,2'-azino-bis(3-ethylbenzthiazoline-6-sulfonic acid) (Sigma Catalog # A-1888) Keep solution in dark at 4 C until ready to use • 15. Hydrogen peroxide 30% solution Fisher Catalog # H325 Store in the dark at 4 C until ready to use • 16. ABTS/H2O2 Formulation: 15 mls ABTS solution 2 ul H2O2 Prepare 5 minutes before use and room temperature • 17. 0.2 M HCL stock in H2O Procedure. • 1. Coat Corning 96-well elisa plates with 0.5 ug per well 05-101 antibody. Bring final volume to 100 ul per well with PBS. Coat plates overnight at 4° C. • 2. Remove unbound 05-101 from wells by inverting plate to remove liquid. Wash 1x with distilled H2O by filling wells Pat the plate on a paper towel to remove excess liquid. • 3. Block plates with 5% milk in PBS. 150 ul per well. Incubate plate 30 minutes while shaking on a microtiter plate shaker. • 4. Wash plate 3x with dionized water, then once with TBST • 5. Add 7 ug A431 cell lysate per well (EGFR source). Add PBS to final volume of 100 ul per well Incubate 30 minutes while shaking. • 6. Wash as described in step 4. • 7. At this point, drugs or extracts are added to the wells. Dilute drugs/extracts 1:100 (unless specified otherwise) in TBS + 10% DMSO in 96-well polypropylene plates. Add 120 ul TBS to ELISA plate containing captured EGFR. Add 13.5 ul diluted drugs/extracts to ELISA plate. […] Incubate plate 30 minutes while shaking. • 8. […] (150 ul final volume in well with 3 uM ATP/5 mM MnCl2 final concentration in well.) Incubate 5 minutes while shaking vigorously. *NOTE: It is critical that ATP/MnCl2 phosphorylates the receptor for 5 minutes only. It is best to add the ATP/MnCl2 with an 12 channel pipettor 1 row at a time leaving 20 seconds between each row so that the reaction may be stopped with EDTA exactly 5 minutes later (this depends on the number of plates being phosphorylated in one batch). Shake between each addition. • 9. After 5 minutes, to stop reaction, add 16.5 ul of 200 mM EDTA pH 8.0 for 20 mM final in well, shaking continuously between each addition. This is done using the same timing method as above. After last row has received EDTA, shake plate an additional minute. • 10. Wash 4x with deionized water, twice with TBST. • 11. Add rabbit polyclonal anti-phosphotyrosine serum. Dilute 1:3000 in TBST. Add 100 ul per well. Incubate 30-45 minutes while shaking. • 12. Wash as described above in step 4. • 13. Add BioSource anti-rabbit peroxidase conjugate antibody. Dilute 1:2000 in TBST. Add 100 ul per well. Incubate 30 minutes while shaking. • 14. Wash as described in step 4. • 15. Add 100 ul of ABTS/H2O2 solution to well. Incubate 5 to 10 minutes while shaking. Remove bubbles • 16. […]

MET = MET biochemical kinase assay; design: species or system human; concentration or dose not given beside the values
From the text: A met biochemical kinase assay may be performed for met generally as described above for other kinases by substituting that or the other kinases. In particular, ELISA plates are coated with goat anti-rabbit Fc antibodies, which are used to capture commercially available (from Santa Cruz Biotechnology) rabbit polyclonal antibodies to the cytoplasmic domain of human MET. […] The chimeric receptors, or MET, from these lysates are captured on the antibody coated plates. After washing away extraneous proteins, test compounds are added and an in vitro kinase assay is performed by addition of an appropriate kinase buffer (containing ATP, divalent metal ions, etc.). Incorporation of phosphate into the captured receptors is detected with an anti-phosphotyrosine antibody conjugate with horse radish peroxidase using TMB as a substrate for colorimetric detection.

T1 sequence (P00533 25-1210): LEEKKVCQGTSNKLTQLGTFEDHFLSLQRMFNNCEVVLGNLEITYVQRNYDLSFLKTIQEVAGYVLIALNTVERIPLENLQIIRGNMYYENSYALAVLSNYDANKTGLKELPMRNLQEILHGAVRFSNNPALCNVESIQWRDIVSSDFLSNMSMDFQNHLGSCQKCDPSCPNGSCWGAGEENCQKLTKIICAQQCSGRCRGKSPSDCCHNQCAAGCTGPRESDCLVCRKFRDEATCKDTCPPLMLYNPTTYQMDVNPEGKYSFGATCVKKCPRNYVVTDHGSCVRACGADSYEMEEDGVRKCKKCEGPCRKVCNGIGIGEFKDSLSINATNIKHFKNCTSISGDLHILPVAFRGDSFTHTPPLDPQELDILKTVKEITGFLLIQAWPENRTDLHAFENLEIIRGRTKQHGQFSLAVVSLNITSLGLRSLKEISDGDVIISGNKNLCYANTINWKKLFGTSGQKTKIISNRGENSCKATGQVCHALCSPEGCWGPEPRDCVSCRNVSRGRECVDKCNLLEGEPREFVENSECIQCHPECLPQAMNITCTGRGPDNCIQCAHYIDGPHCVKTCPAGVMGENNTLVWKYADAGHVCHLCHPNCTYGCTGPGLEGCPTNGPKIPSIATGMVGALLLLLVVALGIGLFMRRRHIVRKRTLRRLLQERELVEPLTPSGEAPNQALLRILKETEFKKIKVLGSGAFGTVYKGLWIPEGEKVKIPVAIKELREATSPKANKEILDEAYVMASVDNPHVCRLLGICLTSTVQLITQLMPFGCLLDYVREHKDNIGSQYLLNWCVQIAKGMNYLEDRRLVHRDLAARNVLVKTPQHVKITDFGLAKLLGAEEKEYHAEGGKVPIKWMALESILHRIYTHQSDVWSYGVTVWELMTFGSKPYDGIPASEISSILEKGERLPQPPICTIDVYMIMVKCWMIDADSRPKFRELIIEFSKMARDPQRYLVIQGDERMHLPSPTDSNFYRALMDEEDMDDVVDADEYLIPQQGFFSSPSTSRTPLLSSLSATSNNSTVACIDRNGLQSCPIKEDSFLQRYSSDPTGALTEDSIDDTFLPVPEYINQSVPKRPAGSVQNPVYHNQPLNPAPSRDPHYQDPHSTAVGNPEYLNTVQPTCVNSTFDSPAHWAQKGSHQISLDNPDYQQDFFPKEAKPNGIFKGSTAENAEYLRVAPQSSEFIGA

Structure (SMILES) | Biochem EGFR %Inhibition (EGFR) | Met Kinase % Inhibition (MET)
O=C1Nc2ccc(CCCl)cc2C1=Cc1coc2ccc([N+](=O)[O-])cc2c1=O [10731/G07] | 0.7% | 10.9%
O=C1Nc2ccc(CCCl)cc2C1=Cc1c[nH]c(=O)[nH]c1=O [10731/G08] | 13.3% | 19.5%
COc1ccc2[nH]cc(C=C3C(=O)Nc4ccc(CCCl)cc43)c2c1 [10731/G09] | 8.9% | 4.4%
CN1C(=O)C(=C2C(=O)Nc3ccc(CCCl)cc32)c2ccccc21 [10731/G10] | 5.5% | 10.3%
O=C1Nc2c(Br)cc(Br)cc2C1=CC(c1cccs1)C(F)(F)F (stereo not drawn) [10732/A02] | 5.1% | 53.7%
COc1c(C(C)C)cc(C=C2C(=O)Nc3c(Br)cc(Br)cc32)cc1C(C)C [10732/A03] | 0.8% | 37.4%
CC(C)c1cc(C=C2C(=O)Nc3c(Br)cc(Br)cc32)cc(C(C)C)c1Oc1ccccc1 [10732/A04] | -10.6% | 34.8%
COc1ccc(C=C2C(=O)Nc3c(Br)cc(Br)cc32)cc1C(C)(C)C [10732/A05] | 4.6% | 20.5%
CC(C)(C)c1cc(C=C2C(=O)Nc3c(Br)cc(Br)cc32)ccc1OCc1ccccc1 [10732/A06] | -1.4% | 5.7%
COc1c(Br)cc(C=C2C(=O)Nc3c(Br)cc(Br)cc32)cc1C(C)(C)C [10732/A07] | -0.3% | 26.1%
CC(C)(C)c1cc(C=C2C(=O)Nc3c(Br)cc(Br)cc32)cc(Br)c1OCc1ccccc1 [10732/A08] | 12.1% | 32.7%
COc1c(Cl)cc(C=C2C(=O)Nc3c(Br)cc(Br)cc32)cc1C(C)(C)C [10732/A09] | 39.7% | 60.3%
CC(C)(C)c1cc(C=C2C(=O)Nc3c(Br)cc(Br)cc32)cc(Cl)c1OCc1ccccc1 [10732/A10] | 6.1% | 20.3%
COc1c(I)cc(C=C2C(=O)Nc3c(Br)cc(Br)cc32)cc1C(C)(C)C [10732/A11] | 1.8% | 65.3%
O=C1Nc2ccc(I)cc2C1=CC(c1cccs1)C(F)(F)F (stereo not drawn) [10732/B02] | -26.0% | 78.0%
COc1c(C(C)C)cc(C=C2C(=O)Nc3ccc(I)cc32)cc1C(C)C [10732/B03] | -15.3% | 58.1%
CC(C)c1cc(C=C2C(=O)Nc3ccc(I)cc32)cc(C(C)C)c1Oc1ccccc1 [10732/B04] | -22.1% | 79.5%
COc1ccc(C=C2C(=O)Nc3ccc(I)cc32)cc1C(C)(C)C [10732/B05] | 17.0% | 71.2%
CC(C)(C)c1cc(C=C2C(=O)Nc3ccc(I)cc32)ccc1OCc1ccccc1 [10732/B06] | 12.8% | 74.3%
COc1c(Br)cc(C=C2C(=O)Nc3ccc(I)cc32)cc1C(C)(C)C [10732/B07] | 15.8% | 75.1%

Structure (SMILES) | Biochem EGFR %Inhibition (EGFR) | Met Kinase % Inhibition (MET)
CC(C)(C)c1cc(C=C2C(=O)Nc3ccc(I)cc32)cc(Br)c1OCc1ccccc1 [10732/B08] | 7.8% | 64.4%
COc1c(Cl)cc(C=C2C(=O)Nc3ccc(I)cc32)cc1C(C)(C)C [10732/B09] | 2.0% | 69.2%
CC(C)(C)c1cc(C=C2C(=O)Nc3ccc(I)cc32)cc(Cl)c1OCc1ccccc1 [10732/B10] | 0.6% | 51.5%
COc1c(I)cc(C=C2C(=O)Nc3ccc(I)cc32)cc1C(C)(C)C [10732/B11] | 9.3% | 73.7%
Cc1c(Br)ccc2c1C(=CC(c1cccs1)C(F)(F)F)C(=O)N2 (stereo not drawn) [10732/C02] | -6.5% | 40.1%
COc1c(C(C)C)cc(C=C2C(=O)Nc3ccc(Br)c(C)c32)cc1C(C)C [10732/C03] | 1.4% | 14.0%
Cc1c(Br)ccc2c1C(=Cc1cc(C(C)C)c(Oc3ccccc3)c(C(C)C)c1)C(=O)N2 [10732/C04] | -14.7% | 30.6%
COc1ccc(C=C2C(=O)Nc3ccc(Br)c(C)c32)cc1C(C)(C)C [10732/C05] | -22.8% | 18.5%
Cc1c(Br)ccc2c1C(=Cc1ccc(OCc3ccccc3)c(C(C)(C)C)c1)C(=O)N2 [10732/C06] | -43.2% | 21.6%
COc1c(Br)cc(C=C2C(=O)Nc3ccc(Br)c(C)c32)cc1C(C)(C)C [10732/C07] | -28.6% | 26.5%
Cc1c(Br)ccc2c1C(=Cc1cc(Br)c(OCc3ccccc3)c(C(C)(C)C)c1)C(=O)N2 [10732/C08] | 1.6% | 54.5%
COc1c(Cl)cc(C=C2C(=O)Nc3ccc(Br)c(C)c32)cc1C(C)(C)C [10732/C09] | -3.9% | 37.9%
Cc1c(Br)ccc2c1C(=Cc1cc(Cl)c(OCc3ccccc3)c(C(C)(C)C)c1)C(=O)N2 [10732/C10] | 1.2% | 43.0%
COc1c(I)cc(C=C2C(=O)Nc3ccc(Br)c(C)c32)cc1C(C)(C)C [10732/C11] | -5.0% | 31.9%
CNS(=O)(=O)c1ccc2c(c1)C(=CC(c1cccs1)C(F)(F)F)C(=O)N2 (stereo not drawn) [10732/D02] | 8.7% | 50.2%
CNS(=O)(=O)c1ccc2c(c1)C(=Cc1cc(C(C)C)c(OC)c(C(C)C)c1)C(=O)N2 [10732/D03] | -18.7% | 24.9%
CNS(=O)(=O)c1ccc2c(c1)C(=Cc1cc(C(C)C)c(Oc3ccccc3)c(C(C)C)c1)C(=O)N2 [10732/D04] | -11.4% | 40.7%
CNS(=O)(=O)c1ccc2c(c1)C(=Cc1ccc(OC)c(C(C)(C)C)c1)C(=O)N2 [10732/D05] | -36.7% | 30.2%
CNS(=O)(=O)c1ccc2c(c1)C(=Cc1ccc(OCc3ccccc3)c(C(C)(C)C)c1)C(=O)N2 [10732/D06] | 3.6% | 24.3%

Source: patent EP1247803A2, “Indolinone compounds suitable for modulation of protein kinases” (Sugen, Inc., priority 1996, dated 1998)
